Data set [1] has as its system Botrytis cinerea. The data set can be described thus: B-11. Botrytis cinerea in vitro cell test. Particulars: 144 h, 20 ppm of active ingredient, 6 days incubation, liquid culture, absorbance, read-out: efficacy (inhibition of fungal growth). The class given is cell-based. The procedure, abridged: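 B. cinerea spores were grown in liquid culture with compound (DMSO ≤1% final). Mycelium growth was measured spectrometrically after 6 days, with inhibition taken as absorbance relative to untreated control wells.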

The subject of data set [2] is Septoria tritici. The data set can be described thus: B-9. Septoria tritici in vitro cell test. The class given is cell-based. Particulars: Zymoseptoria tritici, 168 h; 20 ppm of active ingredient; 7 days incubation; liquid culture, absorbance; read-out: efficacy (inhibition of fungal growth). As for the experimental part:
B-9. Septoria tritici In Vitro Cell Test [table] Fungicides were solubilized in DMSO and the solution used to prepare the required range of concentrations. The final concentration of DMSO used in the assay was ≤1%. A spore suspension of S. tritici was prepared and diluted to the desired spore density. Fungicides were evaluated for their ability to inhibit spore germination and mycelium growth in liquid culture assay. The compounds were added in the desired concentration to the culture medium with spores. After 7 days incubation, fungi-toxicity of compounds was determined by spectrometric measurement of mycelium growth. Inhibition of fungal growth was determined by comparing the absorbance values in wells containing the fungicides with the absorbance in control wells without fungicides.

Data set [3] has as its system Alternaria alternata. As to the kind of experiment: Alternaria alternata in vitro cell test. The class given is cell-based. Particulars: 120 h, 20 ppm of active ingredient, liquid culture, 5 days incubation, spectrometric measurement of mycelium growth, read-out: efficacy (inhibition of fungal growth). The procedure, abridged:
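Liquid culture assay in which A. alternata spores in medium received DMSO-solubilized compound (final DMSO ≤1%). After 5 days, mycelium growth was measured spectrometrically. Inhibition was calculated against fungicide-free control wells.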

Data set [4] can be described thus: Measurement of Log P values by HPLC on reversed phase columns (EEC directive 79/831 Annex V.A8). Format: physicochemical. Particulars: reversed phase HPLC column, method [a]: LC-UV, acidic range, 0.1% formic acid in water and acetonitrile as eluent. The procedure, abridged:
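Reversed-phase HPLC with UV detection per EEC 79/831 Annex V.A8, linear 10–95% acetonitrile gradient. Aqueous eluent: 0.1% formic acid (acidic), 0.001 M ammonium acetate (neutral), or 0.1% phosphoric acid (acidic); multiple values in one method joined by "+".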

Data set [5] concerns Sphaerotheca fuliginea. As to the kind of experiment: In vivo preventive test on Sphaerotheca fuliginea (powdery mildew on cucurbits). The settings on record: Podosphaera fuliginea, 192 h; 500 ppm of active ingredient; preventive spray on gherkin; evaluated 8 days after inoculation; read-out: efficacy. The procedure, abridged:
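Young gherkin plants were sprayed with compound in DMSO/acetone/Tween 80 diluted in water. They were inoculated 24 h later with a spore suspension of Sphaerotheca fuliginea. Plants were then kept for 8 days at 20 °C and 70–80% relative humidity.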

Data set [6] deals with Colletotrichum lindemuthianum. The data set can be described thus: B-8. Colletotrichum lindemuthianum in vitro cell test. Format: cell-based. The settings on record: 144 h, 20 ppm of active ingredient, 6 days incubation, liquid culture, absorbance, read-out: efficacy (inhibition of fungal growth). The procedure, abridged: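 Spore suspension of C. lindemuthianum in liquid medium exposed to DMSO-solubilized compounds (final DMSO ≤1%) for 6 days. Mycelial growth read by absorbance, with inhibition calculated relative to compound-free control wells.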

For data set [7], the system named is Botrytis cinerea. As to the kind of experiment: In vivo preventive test on Botrytis cinerea (grey mould). The settings on record: 500 ppm of active ingredient, preventive spray on gherkin or cabbage, evaluated 4 to 5 days after inoculation, read-out: efficacy. The procedure, abridged:
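Young gherkin or cabbage plants were sprayed with compound in DMSO/acetone/Tween 80 diluted in water, then inoculated 24 hours later with a B. cinerea spore suspension. Incubation lasted 4 to 5 days: gherkin at 17° C., 90% relative humidity; cabbage at 20° C., 100% relative humidity.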

Data set [8] deals with Colletotrichum lindemuthianum. As to the kind of experiment: In vivo preventive test on Colletotrichum lindemuthianum (leaf spot on bean). Particulars: 168 h, 500 ppm of active ingredient, preventive spray on bean, evaluated 7 days after inoculation, read-out: efficacy. The procedure, abridged:
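Young bean plants sprayed with compound in DMSO/acetone/Tween 80 diluted in water; solvent-only controls. Inoculated 24 h later with C. lindemuthianum spore suspension, then kept 24 h at 20 °C/100% RH and 6 days at 20 °C/90% RH.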

Data set [9] has as its system Alternaria brassicae. As to the kind of experiment: In vivo preventive test on Alternaria brassicae (leaf spot on radish or cabbage). The settings on record: 500 ppm of active ingredient, preventive spray on radish or cabbage, evaluated 3 to 4 days after inoculation, read-out: efficacy. The procedure, abridged:
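Young radish or cabbage plants were sprayed with compound dissolved in DMSO/acetone/Tween 80 and diluted in water; controls received solvent only. Inoculation by spraying A. brassicae spore suspension 24 h later, then 3–4 days at 20 °C and 100% relative humidity.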

Data set [10] deals with Pyrenophora teres. The data set can be described thus: B-10. Pyrenophora teres in vitro cell test. Particulars: 144 h, 20 ppm of active ingredient, 6 days incubation, liquid culture, absorbance, read-out: efficacy (inhibition of fungal growth). Format: cell-based. The procedure, abridged:
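Liquid-culture assay on a P. teres spore suspension with compounds added to the medium from DMSO solutions, final DMSO ≤1%. Mycelium growth read spectrometrically after 6 days. Inhibition calculated from absorbance against untreated control wells.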

The test system of data set [11] is Pyrenophora teres. As to the kind of experiment: In vivo preventive test on Pyrenophora teres (net blotch on barley). The settings on record: 240 h, 500 ppm of active ingredient, preventive spray on barley, evaluated 10 days after inoculation, read-out: efficacy. The procedure, abridged: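 Young barley plants sprayed preventively with compound formulated in DMSO/acetone/Tween 80 and diluted in water; controls got solvent only. Inoculated 24 hours later with P. teres spore suspension, then held 48 hours at 20° C, 100% RH and 8 days at 20° C, 70-80% RH.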

As for `Cc1ccc(CCNC(=O)c2c(Oc3cccc(C(F)(F)F)c3)cnc3ccccc23)c(C)c1` [I-002], the inhibition at 20 ppm in data set [1], in data set [2], in data set [3] and in data set [6] was 90 to 100% throughout. This compound registered a chromatographic logP in [4] of 4.17. Moreover, the pest or weed control at 500 ppm in data set [5] and in [7] was 90 to 100% each time.

Turning to `O=C(NCCc1ccc2c(c1)CCO2)c1c(Oc2cccc(C(F)(F)F)c2)nnc2ccccc12` [I-081], the inhibition at 20 ppm in [1] is 90 to 100%; in data set [2], 70 to 79%; in [3], 90 to 100%; in data set [10] it was 90 to 100%; in [6], 90 to 100%. Further, the pest or weed control at 500 ppm in [8], in data set [9] and in [7] was 90 to 100% in each case. In data set [4], this compound gave a chromatographic logP of 3.53.

Take `Cc1ccc(C(F)(F)CNC(=O)c2c(Oc3cccc(C(F)(F)F)c3)nnc3c2COCC3)c(C)c1` [I-122]: the inhibition at 20 ppm in [1], in data set [2], in [3], in data set [10] and in data set [6] was 90 to 100% throughout. In addition, the pest or weed control at 500 ppm is 80 to 89% in data set [8], 90 to 100% in data set [5], 90 to 100% in data set [9] and 90 to 100% in data set [7]. Also, the chromatographic logP in [4] was found to be 3.7.

Regarding `O=C(NCC(F)c1ccc(Cl)cc1Cl)c1c(Oc2cccc(Cl)c2)nnc2c1CCCC2` (centres unmarked) [I-179], the inhibition at 20 ppm in data set [1], in [2], in data set [3], in [10] and in data set [6] was 90 to 100% each time. In data set [4], this compound yielded a chromatographic logP of 3.89.

In the case of `Cc1ccc(C(F)CNC(=O)c2c(Oc3cccc(C(F)(F)F)c3)nnc3c2CCC3)c(C)c1` (centres unmarked) [I-138], the inhibition at 20 ppm in data set [1], in data set [2], in [3], in [10] and in data set [6] was 90 to 100% throughout. The compound also registered a chromatographic logP in [4] of 3.84.

As to `Cc1ccc(C(F)(F)CNC(=O)c2c(Oc3cccc(C4CC4)c3F)cnc3nccnc23)c(C)c1` [I-099], the inhibition at 20 ppm in data set [1] is 90 to 100%; in data set [2], 80 to 89%; in data set [3], 90 to 100%; in data set [10] it was 90 to 100%; in [6], 90 to 100%. Besides, the pest or weed control at 500 ppm in [8], in data set [9] and in [7] was 90 to 100% throughout. Besides, the chromatographic logP in [4] stood at 3.71.

Turning to `Cc1ccc(C(F)(F)CNC(=O)c2c(Oc3cccc(C(F)(F)F)c3)nnc3cc(C4CC4)ccc23)cc1C` [I-235], the inhibition at 20 ppm in data set [1], in [2], in data set [3], in data set [10] and in [6] was 90 to 100% each time. For the same compound, the pest or weed control at 500 ppm was 80 to 89% in [11], 90 to 100% in data set [5], 90 to 100% in [9] and 90 to 100% in data set [7]. This compound also gave a chromatographic logP in data set [4] of 5.

In the case of `O=C(NCC(F)(F)c1ccc(Cl)cc1)c1c(Oc2cccc(C(F)F)c2)nnc2c1CCCC2` [I-120], the inhibition at 20 ppm in [1] is 90 to 100%; in data set [2] it was 80 to 89%; in [3], 90 to 100%; in data set [10], 90 to 100%; in [6] it was 90 to 100%. Also, the chromatographic logP in [4] was 3.37.

As to `O=C(NCCc1ncc(Cl)cn1)c1c(Oc2cccc(C(F)(F)F)c2)nnc2ccccc12` [I-077], the inhibition at 20 ppm in [1], in data set [2], in [3], in data set [10] and in data set [6] was 90 to 100% in each case. Besides, the pest or weed control at 500 ppm in data set [8] was in the range of 70 to 79%; in data set [9] it was 90 to 100%; in [7] it was 90 to 100%. The chromatographic logP in [4] was found to be 2.91.

Turning to `O=C(NOCc1ccc(C(F)(F)F)cc1)c1c(Oc2cccc(C(F)(F)F)c2)nnc2ccccc12` [I-089], the inhibition at 20 ppm in [1] is 90 to 100%; in data set [2], 80 to 89%; in data set [3], 90 to 100%; in data set [10], 90 to 100%; in [6] it was 90 to 100%. In data set [4], this compound gave a chromatographic logP of 3.42. Besides, the pest or weed control at 500 ppm in data set [9] was 90 to 100%; in [7], 70 to 79%.

On to `Cc1ccc(C(F)CNC(=O)c2c(Oc3cccc(Cl)c3)nnc3c2CCCC3)c(C)c1` (centres unmarked) [I-233], for which the inhibition at 20 ppm in data set [1], in data set [2], in data set [3], in data set [10] and in [6] was 90 to 100% in each case. Further, the chromatographic logP in [4] was found to be 3.73.

As to `Cc1ccc([C@@H](F)CNC(=O)c2c(Oc3cccc(C(F)(F)F)c3)nnc3c2OCC(C)(C)CO3)c(C)c1` (racemic) [I-156], the inhibition at 20 ppm in data set [1], in [2], in data set [3], in [10] and in data set [6] was 90 to 100% throughout. The chromatographic logP in [4] worked out at 4.15.

`Cc1ccc(C(F)(F)CNC(=O)c2c(Oc3cccc(Br)c3)cnc3nccnc23)c(C)c1` [I-241, 7-(3-bromophenoxy)-N-[2-(2,4-dimethylphenyl)-2,2-difluoro-ethyl]pyrido[2,3-b]pyrazine-8-carboxamide]: the inhibition at 20 ppm in data set [1], in [2], in data set [3], in data set [10] and in [6] was 90 to 100% each time. Further, the pest or weed control at 500 ppm in data set [8], in data set [9] and in [7] was 90 to 100% each time. This compound showed a chromatographic logP in data set [4] of 3.46.

`Cc1ccc(C(F)(F)CNC(=O)c2c(Oc3cccc(Cl)c3)cnc3nccnc23)c(C)c1` [I-234]: the inhibition at 20 ppm in data set [1], in data set [2], in data set [3], in data set [10] and in data set [6] was 90 to 100% in each case. Further, the pest or weed control at 500 ppm was 80 to 89% in data set [8], 90 to 100% in data set [9] and 90 to 100% in data set [7]. In data set [4], this compound showed a chromatographic logP of 3.37.

(Values after US20230192617A1, “AZABICYCLIC(THIO)AMIDES AS FUNGICIDAL COMPOUNDS” (Bayer CropScience Aktiengesellschaft, priority 2020, published 2023).)
